# Laboratory results published in publication PMC7253423, “Quassinoid analogs with enhanced efficacy for treatment of hematologic malignancies target the PI3Kγ isoform” (Communications Biology, 2020).
# Where “and” joins values, the source holds several entries; their conditions need not be identical. Identical values can stand only once.
# Legend:
# SU-DHL-4 cells = test: Cell viability assay (CellTiter-Glo luminescence); type: cell-based, human; conditions: Homo sapiens, SU-DHL-4, 144 h
# Procedure: (§1) 5000 cells as indicated were cultured in 96-well plate with 100 μl of media. […] After treatment, the cells were incubated with 100 μl buffer for 10 min at room temperature following the instructions of CellTiter-Glo kit (Promega, Madison, WI). Luminescence was detected using a multi-mode reader Cytation 5 (BioTek, Winooski, VT). […] Two independent experiments done in duplicates were performed.
# Raji cells [1] = test: Cell viability assay (CellTiter-Glo luminescence); type: cell-based, human; conditions: Homo sapiens
# Procedure: as §1
# MOLM14 xenografts [2] = test: In vivo tumorigenic assay using xenografts, tumor size; parameters: species or system NOD/SCID mice; key to tumor size (Fig 5d&5e), individual mice: tumor volume in mm^3, calculated as (a × b × b)/2; conditions: for tumor size (Fig 5d&5e), individual mice: MOLM14 xenograft
# Procedure: (§2) Six-week-old male NOD.CB17-Prkdc^scid/J (NOD/SCID) mice (Jackson Labs, Bar Harbor, ME, USA) were used as the human-in-mouse xeno-transplantation model. MOLM14 cells (1 × 10^7 cells) were injected into the subcutaneous space on the left flank of the mice. […] Body weight and tumor size were monitored before every injection. After treatment for 2 weeks, the mice were euthanized by CO2 inhalation and the tumors were carefully excised. The tumor volume (mm^3) was measured and calculated using the formula (a × b × b)/2 (a, the largest diameter of two measurements; b, the smallest diameter of two measurements).
# [3] = system: hematologic malignancies derived cell lines; test: Cell viability assay, panel of hematologic malignancy derived cell lines; type: cell-based, human; conditions: 100 nM, 72 h, lymphoma, leukemia and multiple myeloma cell lines (13 cell lines for analogs)
# Procedure: 5000 cells as indicated were cultured in 96-well plate with 100 μl of media. On the next day, Brusatol or associated analogs were added once to the cells without media change. After treatment, the cells were incubated with 100 μl buffer for 10 min at room temperature following the instructions of CellTiter-Glo kit (Promega, Madison, WI). Luminescence was detected using a multi-mode reader Cytation 5 (BioTek, Winooski, VT). […] Two independent experiments done in duplicates were performed.
# MOLM14 cells = test: Cell viability assay (CellTiter-Glo luminescence); type: cell-based; conditions: Homo sapiens
# Procedure: as §1
# Raji cells [4] = test: Western blot of PI3K/AKT signaling proteins; type: cell-based, human; conditions: Raji, 0, 50 nM, 100 nM; 0, 12 h, 24 h
# Procedure: Western blot analyses were performed as previously described. Briefly, total cell lysates were separated by SDS-PAGE gel and transferred to nitrocellulose membrane. The membranes were blocked with 5% non-fat milk, probed with specific antibodies, and visualized using the Odyssey scanner (LiCor Inc., Lincoln, NE).
# MOLM14 xenografts [5] = test: mRNA expression in xenograft tumors in vivo; parameters: species or system NOD/SCID mice; conditions: xenograft tumors of treated mice
# Procedure: Real-time PCR experiments were performed as previously described. The experiments were performed in triplicate.
# as §2
# [6] = Cytotoxicity, cell viability assay in normal cells; type: cell-based, human; conditions: human, relative cell viability (Fig 6a), replicates
# Excerpt: (§3) Human peripheral blood mononuclear cells (PBMCs), normal T-cells and B-cells were provided by the University of Pennsylvania Human Immunology Core (HIC), and Patient-derived xenografts (PDXs) were obtained from Fox Chase Cancer Center (FCCC). These samples were from different unidentified and healthy donors with written, informed consent. All the procedures were approved by the Institutional Review Board (IRB) and conducted according to the declarations of Helsinki protocols.
# as §1
# [7] = In vivo toxicity test, survival rate; parameters: species or system NOD/SCID mice
# Procedure: The survival rate was recorded to monitor the tolerance of the compounds in these mice.
# [8] = Cytotoxicity, cell viability assay in normal cells; type: cell-based; conditions: human, replicates
# Excerpt: as §3, §1
# [9] = relative cell viability (Fig 6b)
# [10] = relative cell viability (Fig 6c)
smiles,measurement,setting,value
COC(=O)C12OCC34C(CC5C(C)=C(OC(=O)CC(C)N)C(=O)CC5(C)C3C(O)C1O)OC(=O)C(OC(=O)C=C(C)C)C24 (stereo not drawn) [#26],viability at 0.00244141 µM,"SU-DHL-4 cells; read-out: relative cell viability (Fig 6d), replicates, SU-DHL-4, Con. 0.00244141 μM, fraction of 0 μM control",125%
same,viability at 0.0390625 µM,"SU-DHL-4 cells; read-out: relative cell viability (Fig 6d), replicates, SU-DHL-4, Con. 0.0390625 μM, fraction of 0 μM control",36.6%
same,viability at 0.15625 µM,"SU-DHL-4 cells; read-out: relative cell viability (Fig 6d), replicates, SU-DHL-4, Con. 0.15625 μM, fraction of 0 μM control",18.6%
same,viability at 0.625 µM,"SU-DHL-4 cells; read-out: relative cell viability (Fig 6d), replicates, SU-DHL-4, Con. 0.625 μM, fraction of 0 μM control",9.14%
same,viability at 10 µM,"SU-DHL-4 cells; read-out: relative cell viability (Fig 6d), replicates, SU-DHL-4, Con. 10 μM, fraction of 0 μM control",6.62%
same,IC50,"Raji cells [1]; analogs, 72 h, Fig. 5c, read-out: IC50",0.0376 µM
same,viability at 0.00244141 µM,"Raji cells [1]; read-out: relative cell viability (Fig 6f), replicates, Raji, Con. 0.00244141 μM, fraction of 0 μM control",105%
same,viability at 0.0390625 µM,"Raji cells [1]; read-out: relative cell viability (Fig 6f), replicates, Raji, Con. 0.0390625 μM, fraction of 0 μM control",35%
same,viability at 0.15625 µM,"Raji cells [1]; read-out: relative cell viability (Fig 6f), replicates, Raji, Con. 0.15625 μM, fraction of 0 μM control",16.4%
same,viability at 0.625 µM,"Raji cells [1]; read-out: relative cell viability (Fig 6f), replicates, Raji, Con. 0.625 μM, fraction of 0 μM control",7.06%
same,viability at 10 µM,"Raji cells [1]; read-out: relative cell viability (Fig 6f), replicates, Raji, Con. 10 μM, fraction of 0 μM control",4.98%
same,"tumor size, inhibitory response","MOLM14 xenografts [2]; 2 mg/kg intraperitoneally three times per week, 2 weeks, vs PBS control",strong and rapid inhibitory response
same,"tumor size (Fig 5d&5e), individual mice",MOLM14 xenografts [2]; 0d,50.8503 and 81.4689 and 79.571 and 83.4481 and 51.3256 and 101.436
same,"tumor size (Fig 5d&5e), individual mice",MOLM14 xenografts [2]; 2d,106.443 and 103.871 and 87.5139 and 68.1449 and 136.175 and 126.294
same,"tumor size (Fig 5d&5e), individual mice",MOLM14 xenografts [2]; 4d,67.7106 and 172.977 and 64.3385 and 73.9417 and 166.255 and 100.157
same,"tumor size (Fig 5d&5e), individual mice",MOLM14 xenografts [2]; 6d,174.013 and 301.003 and 181.944 and 99.2269 and 96.1716 and 48.5716
same,"tumor size (Fig 5d&5e), individual mice",MOLM14 xenografts [2]; 8d,185.825 and 124.577 and 101.125 and 181.307 and 468.229 and 312.088
same,"tumor size (Fig 5d&5e), individual mice",MOLM14 xenografts [2]; 10d,259.199 and 230.595 and 161.819 and 478.339 and 646.864 and 395.944
same,"tumor size (Fig 5d&5e), individual mice",MOLM14 xenografts [2]; 12d,359.944 and 415.708 and 136.428 and 853.399 and 887.802 and 629.337
same,inhibition of cell viability in panel of cell lines,[3],significantly inhibit
same,viability at 0.0390625 µM,"MOLM14 cells; MOLM-14, read-out: relative cell viability (Fig 6e), replicates, MOLM14, Con. 0.0390625 μM, fraction of 0 μM control",12.5%
same,viability at 0.15625 µM,"MOLM14 cells; MOLM-14, read-out: relative cell viability (Fig 6e), replicates, MOLM14, Con. 0.15625 μM, fraction of 0 μM control",7.37%
same,viability at 0.625 µM,"MOLM14 cells; MOLM-14, read-out: relative cell viability (Fig 6e), replicates, MOLM14, Con. 0.625 μM, fraction of 0 μM control",5.55%
same,viability at 10 µM,"MOLM14 cells; MOLM-14, read-out: relative cell viability (Fig 6e), replicates, MOLM14, Con. 10 μM, fraction of 0 μM control",4.05%
same,"suppression of AKT1, GSK3, and mTOR levels",Raji cells [4],largely similar to Brusatol
same,PIK3CG and GSK3B mRNA expression in vivo,MOLM14 xenografts [5],inhibited
same,viability at 0.000244141 μM,[6],103%
same,viability at 0.00390625 μM,[6],85%
same,viability at 0.015625 μM,[6],83.1%
same,viability at 0.0625 μM,[6],80.7%
same,viability at 1 μM,[6],61.8%
same,toxicity in vivo (survival),"[7]; 10 mg/kg intraperitoneally every other day, monitored 24 days, 4 mice per group",did not show any obvious signs of toxicity
same,"survival event status per mouse (Fig 6i; 1 = event/death, 0 = censored)","[7]; 10mg/kg, Days Post-treatment 24",0
same,viability at 0.000244141 μM,[8]; [9],96.2%
same,viability at 0.00390625 μM,[8]; [9],86%
same,viability at 0.015625 μM,[8]; [9],81.6%
same,viability at 0.0625 μM,[8]; [9],74.5%
same,viability at 1 μM,[8]; [9],82.6%
same,viability at 0.000244141 μM,[8]; [10],111%
same,viability at 0.00390625 μM,[8]; [10],112%
same,viability at 0.015625 μM,[8]; [10],115%
same,viability at 1 μM,[8]; [10],93.8%
